≈ marks a conversion by molar mass, not a printed value. Square brackets hold non-standard residues; d marks the D form. Ends that are not written are not given here. Peptide text beside a SMILES is read from it. Trp(2,5,7-tBu3) = CC(C)(C)c1cc(C(C)(C)C)c2[nH]c(C(C)(C)C)c(C[C@H](N)C(=O)O)c2c1; Trp(5-OH) = N[C@@H](Cc1c[nH]c2ccc(O)cc12)C(=O)O
Key:
MDR A. baumannii = test: microbe, parasite or virus in culture; conditions: CLSI broth microdilution; CAMHB with 50 mg/L Ca2+, 10 mg/L Mg2+; 5 × 10^5 CFU/ml; 18 h 37 °C; triplicate; strain ATCC BAA-1605
From the text: (§1) MDR Pseudomonas aeruginosa (CCARM 2180) was purchased from the Culture Collection of Antimicrobial Resistance Microbes (Seoul, Republic of Korea). MDR Acinetobacter baumannii (ATCC BAA-1605) and MDR Enterococcus faecalis (ATCC 51575) were purchased from the American Type Culture Collection (Manassas, VA, USA). MDR Staphylococcus aureus (KCCM 40510) was purchased from the Korean Culture Center of Microorganisms (Seoul, Republic of Korea). S. aureus (KCTC 1621) was purchased from the Korean Collection for Type Cultures. A. baumannii (KCCM 40203) was purchased from the Korean Culture Center of Microorganisms (Seoul, Republic of Korea).
(§2) To assess antimicrobial activity, the MIC50 and MIC90 were measured using broth microdilution following CLSI guidelines. […] Each experiment was performed in triplicate. Meropenem (Sigma, Darmstadt, Germany) and colistin were used as control antibiotics. Cation-adjusted Mueller–Hinton broth (CAMHB) (Becton, Dickinson and Company, Franklin Lakes, USA) with supplied calcium (50 mg/L) and magnesium (10 mg/L) was used for the CLSI-test condition. Bacteria in midlog phase and peptides were separately diluted in CAMHB. The bacteria and peptide solutions were then mixed in 96-well polyethylene plates (SPL, Gyeonggi-do, Korea) and incubated for 18 h at 37 °C. The final concentration for bacteria was 5 × 10^5 CFU/ml. […] The MIC was defined to be the lowest concentration of peptide without visible turbidity by comparing with control antibiotics with the unaided eye. […] Each experiment was performed in triplicate. MICs in albumin and acetic acid solutions were measured using the same protocol but with 0.2% bovine serum albumin (Bovogen, Keilor, Australia), 0.01% acetic acid (Merck, New Jersey, USA), and CAMHB with both calcium and magnesium. In addition, MICs used in the antibiotic resistance acquisition test, the outer–inner membrane permeation test, and the transmembrane potential test and for FE-SEM were individually determined. The final bacterial concentrations used were as follows: for resistance acquisition, optical density (OD) 0.01; for outer–inner membrane permeability assays (LB), OD 0.1; for the transmembrane potential test, 1 × 10^8 CFU/ml (OD 0.171); […]. Inhibitory activity unidentifiable by direct observation was determined by counting the CFUs. Each experiment was performed at least twice.

MDR E. faecalis = test: microbe, parasite or virus in culture; conditions: CLSI broth microdilution; CAMHB with 50 mg/L Ca2+, 10 mg/L Mg2+; 5 × 10^5 CFU/ml; 18 h 37 °C; triplicate; strain ATCC 51575
From the text: as §1, §2

MDR S. aureus = test: microbe, parasite or virus in culture; conditions: CLSI broth microdilution; CAMHB with 50 mg/L Ca2+, 10 mg/L Mg2+; 5 × 10^5 CFU/ml; 18 h 37 °C; triplicate; strain KCCM 40510
From the text: as §1, §2

human red blood cells = test: Hemolytic activity; type: cell-based; conditions: red cells of human, 18 h
Procedure: Human red blood cells (Zenbio, North Carolina, USA) and peptides were separately diluted in PBS (blood concentration, 8%). The blood cell and peptide solutions were then mixed in 96-well polyethylene plates (SPL, Gyeonggi-do, Korea) and incubated for 18 h at 37 °C. The final concentration of human red blood cells was 4%, while peptide concentrations were 100 μM, 50 μM, 25 μM, 12.5 μM, 6.25 μM, 3.13 μM, 1.56 μM, and 0.78 μM. After incubation, the plates were centrifuged at 1000 × g for 5 min, and the supernatants were transferred to 96-well polyethylene plates. Hemolysis levels were determined by measuring the absorbance at 540 nm with a SpectraMax plate spectrophotometer (Molecular Devices, California, USA). Control samples were treated with 1% Triton X-100 (for 100% hemolysis) or solution with 0 μM peptide (for 0% hemolysis) and melittin (for positive control). Each experiment was performed in triplicate.

MDR P. aeruginosa = test: microbe, parasite or virus in culture; conditions: CLSI broth microdilution; CAMHB with 50 mg/L Ca2+, 10 mg/L Mg2+; 5 × 10^5 CFU/ml; 18 h 37 °C; no visible turbidity; triplicate; strain CCARM 2180
From the text: as §1, §2

Compound | Minimum inhibitory concentrations, MDR A. baumannii (MDR A. baumannii) | Minimum inhibitory concentrations, MDR E. faecalis (MDR E. faecalis) | Minimum inhibitory concentrations, MDR S. aureus (MDR S. aureus) | Hemolysis percent, 25 μM (human red blood cells) | Hemolysis percent, 50 μM (human red blood cells) | Hemolysis percent, 100 μM (human red blood cells) | Minimum inhibitory concentrations, MDR P. aeruginosa (MDR P. aeruginosa)
CC[C@@H](C)[C@@H](NC(=O)[C@@H](Cc1c[nH]c2ccccc12)NC(=O)[C@H](NC(=O)[C@@H](CC(C)C)NC(=O)[C@H](N)Cc1c[nH]c2ccccc12)C(C)C)C(=O)N[C@H](Cc1c[nH]c2ccccc12)C(=O)N[C@H](CCCNC(=N)N)C(=O)N[C@H](CCCNC(=N)N)C(N)=O [WCopW32] (H-[dW][dL][dV][dW][dI][dW][dR][dR]-NH2) | 2.5 µM (≈ 3.03 µg/mL) | 0.63 µM (≈ 0.765 µg/mL) | 0.63 µM (≈ 0.765 µg/mL) | 1.66 ± 0.11% | 2.95 ± 0.21% | 4.53 ±0.01% | –
CC[C@@H](C)[C@@H](NC(=O)[C@@H](Cc1c[nH]c2ccccc12)NC(=O)[C@@H](Cc1ccc(O)cc1)NC(=O)[C@@H](CC(C)C)NC(=O)[C@H](N)Cc1c[nH]c2ccccc12)C(=O)NCC(=O)N[C@H](CC(C)C)C(=O)N[C@H](CCCNC(=N)N)C(=O)N[C@H](CCCCN)C(=O)N[C@H](CCCCN)C(=O)N[C@H](CCCNC(=N)N)C(N)=O [WCopWY] (H-[dW][dL][dY][dW][dI]G[dL][dR][dK][dK][dR]-NH2) | 1.25 µM (≈ 1.9 µg/mL) | 2.5 µM (≈ 3.79 µg/mL) | 10 µM (≈ 15.2 µg/mL) | – | – | – | 20 µM (≈ 30.4 µg/mL)
CC[C@@H](C)[C@@H](NC(=O)[C@@H](Cc1c[nH]c2ccccc12)NC(=O)[C@@H](Cc1ccccc1)NC(=O)[C@@H](CC(C)C)NC(=O)[C@H](N)Cc1c[nH]c2ccccc12)C(=O)NCC(=O)N[C@H](CC(C)C)C(=O)N[C@H](CCCNC(=N)N)C(=O)N[C@H](CCCCN)C(=O)N[C@H](CCCCN)C(=O)N[C@H](CCCNC(=N)N)C(N)=O [WCopWF] (H-[dW][dL][dF][dW][dI]G[dL][dR][dK][dK][dR]-NH2) | 1.25 µM (≈ 1.88 µg/mL) | 2.5 µM (≈ 3.75 µg/mL) | 2.5 µM (≈ 3.75 µg/mL) | – | – | – | 10 µM (≈ 15 µg/mL)
HLLWIALRKK-NH2 [HCopW] | >20 µM | >20 µM | >20 µM | – | – | – | >20 µM
CC[C@@H](C)[C@@H](NC(=O)[C@@H](Cc1c[nH]c2ccccc12)NC(=O)[C@H](NC(=O)[C@@H](CC(C)C)NC(=O)[C@H](N)Cc1c[nH]c2ccccc12)C(C)C)C(=O)NCC(=O)N[C@H](CC(C)C)C(=O)N[C@H](CCCNC(=N)N)C(=O)N[C@H](CCCCN)C(=O)N[C@H](CCCCN)C(=O)N[C@H](CCCNC(=N)N)C(N)=O [WCopWV] (H-[dW][dL][dV][dW][dI]G[dL][dR][dK][dK][dR]-NH2) | 1.25 µM (≈ 1.82 µg/mL) | 2.5 µM (≈ 3.63 µg/mL) | 2.5 µM (≈ 3.63 µg/mL) | – | – | – | 10 µM (≈ 14.5 µg/mL)
CC[C@H](C)[C@H](NC(=O)[C@H](Cc1c[nH]c2ccc(O)cc12)NC(=O)[C@H](CC(C)C)NC(=O)[C@H](CC(C)C)NC(=O)[C@@H](N)Cc1c[nH]c2ccc(O)cc12)C(=O)N[C@@H](C)C(=O)N[C@@H](CC(C)C)C(=O)N[C@@H](CCCNC(=N)N)C(=O)N[C@@H](CCCCN)C(=O)N[C@@H](CCCCN)C(N)=O [WhCopW] (H-[Trp(5-OH)]LL[Trp(5-OH)]IALRKK-NH2) | > 20 µM | > 20 µM | 5 µM (≈ 6.79 µg/mL) | – | – | – | > 20 µM
CC[C@@H](C)[C@@H](NC(=O)[C@@H](Cc1c[nH]c2ccccc12)NC(=O)[C@@H](CCC(=O)O)NC(=O)[C@@H](CC(C)C)NC(=O)[C@H](N)Cc1c[nH]c2ccccc12)C(=O)NCC(=O)N[C@H](CC(C)C)C(=O)N[C@H](CCCNC(=N)N)C(=O)N[C@H](CCCCN)C(=O)N[C@H](CCCCN)C(=O)N[C@H](CCCNC(=N)N)C(N)=O [WCopWE] (H-[dW][dL][dE][dW][dI]G[dL][dR][dK][dK][dR]-NH2) | 10 µM (≈ 14.8 µg/mL) | >20 µM | >20 µM | – | – | – | >20 µM
WLLWIALRKK-NH2 [WCopW] | 5 µM | 10 µM | 5 µM | – | – | – | > 20 µM
SLLWIALRKK-NH2 [SCopW] | >20 µM | >20 µM | >20 µM | – | – | – | >20 µM
CC[C@@H](C)[C@@H](NC(=O)[C@@H](Cc1c[nH]c2ccccc12)NC(=O)[C@@H](CCCNC(=N)N)NC(=O)[C@H](N)CCCNC(=N)N)C(=O)N[C@H](Cc1c[nH]c2ccccc12)C(=O)N[C@@H](C(=O)N[C@@H](C(=O)N[C@H](Cc1c[nH]c2ccccc12)C(=O)N[C@H](CCCNC(=N)N)C(N)=O)[C@H](C)CC)C(C)C [WCopW54] (H-[dR][dR][dW][dI][dW][dV][dI][dW][dR]-NH2) | 0.63 µM (≈ 0.863 µg/mL) | – | 0.63 µM (≈ 0.863 µg/mL) | 8.38 ± 1.14% | 11.43 ± 2.42% | 35.13 ± 4.13% | 2.5 µM (≈ 3.42 µg/mL)
CC[C@H](C)[C@H](NC(=O)[C@H](Cc1c[nH]c2ccccc12)NC(=O)[C@H](CC(C)C)NC(=O)[C@H](CC(C)C)NC(=O)[C@@H](N)Cc1c(C(C)(C)C)[nH]c2c(C(C)(C)C)cc(C(C)(C)C)cc12)C(=O)N[C@@H](C)C(=O)N[C@@H](CC(C)C)C(=O)N[C@@H](CCCNC(=N)N)C(=O)N[C@@H](CCCCN)C(=O)N[C@@H](CCCCN)C(N)=O [WtCopW] (H-[Trp(2,5,7-tBu3)]LLWIALRKK-NH2) | 10 µM (≈ 14.9 µg/mL) | 20 µM (≈ 29.9 µg/mL) | 5 µM (≈ 7.47 µg/mL) | – | – | – | > 20 µM
CC[C@@H](C)[C@@H](NC(=O)[C@@H](Cc1c[nH]c2ccccc12)NC(=O)[C@@H](CC(C)C)NC(=O)[C@H](N)Cc1c[nH]c2ccccc12)C(=O)N[C@H](Cc1c[nH]c2ccccc12)C(=O)N[C@H](CCCNC(=N)N)C(=O)N[C@H](CCCNC(=N)N)C(=O)N[C@H](CCCNC(=N)N)C(N)=O [WCopW41] (H-[dW][dL][dW][dI][dW][dR][dR][dR]-NH2) | 2.5 µM (≈ 3.18 µg/mL) | 1.25 µM (≈ 1.59 µg/mL) | – | 0.01 ±0.01% | 0.04 ± 0.02% | 0.42 ±0.06% | –
CC[C@@H](C)[C@@H](NC(=O)[C@H](N)Cc1c[nH]c2ccccc12)C(=O)N[C@@H](C(=O)N[C@H](Cc1c[nH]c2ccccc12)C(=O)N[C@@H](C(=O)N[C@H](Cc1c[nH]c2ccccc12)C(=O)N[C@H](CCCNC(=N)N)C(=O)N[C@H](CCCNC(=N)N)C(=O)N[C@H](CCCNC(=N)N)C(N)=O)[C@H](C)CC)[C@H](C)CC [WCopW61] (H-[dW][dI][dI][dW][dI][dW][dR][dR][dR]-NH2) | 1.25 µM (≈ 1.73 µg/mL) | – | 0.63 µM (≈ 0.872 µg/mL) | 6.90 ± 0.03% | 8.91 ± 0.75% | 11.6 ±0.99% | 5 µM (≈ 6.92 µg/mL)

Source: PMC9643456, “Matching amino acids membrane preference profile to improve activity of antimicrobial peptides” (Communications Biology, 2022)
